The structures appear in SMILES notation. pIC50: −log10 of the molar value. Where only a bound is given, the exact number is not on record here.

This is an account of results in BindingDB's records for doi:10.1021/jm800200u (Mgi Pharma, 2008).

For the experiment, the target named is D-amino-acid oxidase (Sus scrofa, UniProt P00371). Kind of experiment: In vitro D-Amino Acid Oxidase Assay. Particulars: pH 8.5; 22 °C. As to the method: D-amino acid oxidase (DAAO) was assayed in a 96-well plate format. D-serine was oxidatively deaminated by porcine D-amino acid oxidase in the presence of molecular oxygen and flavin […] dinucleotide (FAD) to yield the corresponding alpha-keto acid, ammonia and hydrogen peroxide.
D-amino-acid oxidase, sequence (P00371 whole entry): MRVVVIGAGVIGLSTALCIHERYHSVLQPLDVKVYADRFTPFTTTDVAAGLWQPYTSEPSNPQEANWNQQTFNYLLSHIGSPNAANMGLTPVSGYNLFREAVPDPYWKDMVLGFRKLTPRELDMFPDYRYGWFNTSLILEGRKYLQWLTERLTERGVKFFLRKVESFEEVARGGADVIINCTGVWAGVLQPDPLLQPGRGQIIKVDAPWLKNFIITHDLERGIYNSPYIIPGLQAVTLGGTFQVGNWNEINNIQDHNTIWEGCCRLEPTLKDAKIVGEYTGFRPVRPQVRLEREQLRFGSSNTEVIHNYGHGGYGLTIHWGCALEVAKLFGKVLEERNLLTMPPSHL

`O=c1[nH]oc2c1CCCC2` [4,5,6,7-tetrahydrobenzo[d]isoxazol-3-ol] gave a pIC50 of under 4.00.

The pIC50 is the negative decadic logarithm of the IC50, by convention in mol/L. Higher therefore signals a small IC50.
